Experimental data taken from patent US20210386695A1 (priority 2020, published 2021).
pEC50: −log10 of the molar value.

Key:
Format in all cases: cell-based
[1] = system: B.1.1.7 variant of SARS-CoV-2 pseudo-particles; test: microbe, parasite or virus in culture; settings: Severe acute respiratory syndrome coronavirus 2, Vero C1008
[2] = system: 501Y-V2 variant of SARS-CoV-2 pseudo-particles; test: microbe, parasite or virus in culture; settings: Severe acute respiratory syndrome coronavirus 2, Vero C1008
[3] = system: B.1.1.7 variant of SARS-CoV-2 pseudo-particles
[4] = system: B.1.1.7 variant of SARS-CoV-2 pseudo-particles; remark: listed apart in the source

Structure (SMILES): CCN(CC)C(=S)SSC(=S)N(CC)CC [disulfiram]
- pEC50 [1]: 5.50
- pEC50 [2]: 5.42
- block of viral pseudo-particles infection [3]: dose-dependent manner
- inhibitory capacity in furin-expressing Vero E6 cells compared with Vero E6 cells [4]: similar
